These are literature values, as cited in US10406114B2, “Antibiotic-loaded transdermal patch” (priority 2017, dated 2019).

For this series, the system named is Staphylococcus aureus.

For `CC1=C(C(=O)O)N2C(=O)[C@@H](NC(=O)[C@H](N)c3ccccc3)[C@H]2SC1` [cephalexin], the MIC result is “about 8 μg/ml”.
